For experiment [1], the target named is T1, SARS-CoV-2 PLpro (nsp3 1564–1878) (Severe acute respiratory syndrome coronavirus 2, UniProt P0DTD1). The experiment in a line: biochemical. Set-up: FRET-quenched peptide (Pro3) cleavage by PLpro, 10 min pre-incubation, slope over 20 min, normalised to no-compound control. The conditions noted are these: low concentration screen, read-out: % of control remaining.

The target in experiment [2] is T1, SARS-CoV-2 PLpro (nsp3 1564–1878). Nature of the experiment: biochemical. Set-up: FRET-quenched peptide (Pro3) cleavage by PLpro, 10 min pre-incubation, slope over 20 min, normalised to no-compound control. The following applies: high concentration screen, read-out: % of control remaining.

Drawing on PMC8286840, “Identifying SARS-CoV-2 antiviral compounds by screening for small molecule inhibitors of Nsp3 papain-like protease” (Biochemical Journal, 2021), this text covers remaining activity for 28 molecules.

Counter-ions that a name gives are not always drawn. Like-named read-outs stand apart in the source and are kept apart here.

As to `O=C1C[C@@H](c2ccccc2)Oc2cc(O)cc(O)c21` [Pinocembrin], in experiment [1] (Well no.=3587), the remaining activity at 1.25 µM is 99.6%. Besides, the remaining activity at 3.75 µM in experiment [2] (Well no.=3587) is 98.4%.

Turning to `CCc1ccc(CCOc2ccc(CC3SC(=O)NC3=O)cc2)nc1` (centres unmarked) [Pioglitazone], the remaining activity at 1.25 µM in experiment [1] (Well no.=1718) was determined as 98.7%. For the same molecule, the remaining activity at 3.75 µM in experiment [2] (Well no.=1718) worked out at 98%.

Take `O=C(O)C1CCCCN1` (centres unmarked) [Pipecolic acid]: the remaining activity at 1.25 µM in experiment [1] (Well no.=6929) was 103%. In addition, the remaining activity at 3.75 µM in experiment [2] (Well no.=6929) worked out at 102%.

Turning to `CCN1CCN(C(=O)N[C@@H](C(=O)N[C@@H]2C(=O)N3[C@@H]2SC(C)(C)[C@@H]3C(=O)O)c2ccccc2)C(=O)C1=O` [Piperacillin (sodium)], the remaining activity at 1.25 µM in experiment [1] (Well no.=8072) amounted to 96.2%. Moreover, in experiment [2] (Well no.=8072), the remaining activity at 3.75 µM came out at 91.7%.

`CCN1CCN(C(=O)N[C@@H](C(=O)N[C@@H]2C(=O)N3[C@@H]2SC(C)(C)[C@@H]3C(=O)O)c2ccccc2)C(=O)C1=O` [Piperacillin]: the remaining activity at 1.25 µM in experiment [1] (Well no.=2107) amounted to 104%. For the same molecule, in experiment [2] (Well no.=2107), the remaining activity at 3.75 µM was determined as 104%.

For the molecule `O=S(=O)(O)C1CCNCC1` [Piperidine-4-sulphonic acid], the remaining activity at 1.25 µM in experiment [1] (Well no.=1449) turned out to be 99.5%. In addition, in experiment [2] (Well no.=1449), the remaining activity at 3.75 µM was 94.6%.

Take `O=C(/C=C/C=C/c1ccc2c(c1)OCO2)N1CCCCC1` [Piperine]: the remaining activity at 1.25 µM turned out to be 92.8% in experiment [1] (Well no.=3110) and 99.3% in experiment [1] (Well no.=8242). Moreover, the remaining activity at 3.75 µM amounted to 94.5% in experiment [2] (Well no.=3110) and 96.3% in experiment [2] (Well no.=8242).

As to `c1ccc2c(c1)OCC(CN1CCCCC1)O2` (centres unmarked) [Piperoxan (hydrochloride)], in experiment [1] (Well no.=7383), the remaining activity at 1.25 µM worked out at 106%. For the same molecule, the remaining activity at 3.75 µM in experiment [2] (Well no.=7383) was 105%.

On to `NC(=O)CN1CCCC1=O` [Piracetam], for which the remaining activity at 1.25 µM in experiment [1] (Well no.=1100) turned out to be 96.7%. Besides, the remaining activity at 3.75 µM in experiment [2] (Well no.=1100) was 97.5%.

Consider `Cc1nc2ccccn2c(=O)c1CCN1CCC(C(=O)c2ccc(F)cc2)CC1` [Pirenperone], for which the remaining activity at 1.25 µM in experiment [1] (Well no.=1359) is 101%. Besides, the remaining activity at 3.75 µM in experiment [2] (Well no.=1359) was found to be 102%.

On to `Cc1ccc(=O)n(-c2ccccc2)c1` [Pirfenidone], for which the remaining activity at 1.25 µM in experiment [1] (Well no.=904) was found to be 107%. The remaining activity at 3.75 µM in experiment [2] (Well no.=904) is 109%.

As for `c1cnc(N2CCN(Cc3ccc4c(c3)OCO4)CC2)nc1` [Piribedil maleate], the remaining activity at 1.25 µM in experiment [1] (Well no.=1163) amounted to 96.1%. In addition, in experiment [2] (Well no.=1163), the remaining activity at 3.75 µM came to 96.2%.

With `c1cnc(N2CCN(Cc3ccc4c(c3)OCO4)CC2)nc1` [Piribedil.2HCl], the remaining activity at 1.25 µM in experiment [1] (Well no.=1841) turned out to be 96.6%. Also, in experiment [2] (Well no.=1841), the remaining activity at 3.75 µM amounted to 95.4%.

`CN1C(C(=O)Nc2ccccn2)=C(O)c2ccccc2S1(=O)=O` [Piroxicam]: the remaining activity at 1.25 µM in experiment [1] (Well no.=862) amounted to 99.8%; in experiment [1] (Well no.=1566), 98.4%. Further, the remaining activity at 3.75 µM in experiment [2] (Well no.=862) was determined as 103%; in experiment [2] (Well no.=1566), 99.8%.

As for `O=C(O)C[C@H](O)C[C@H](O)/C=C/c1c(C2CC2)nc2ccccc2c1-c1ccc(F)cc1` [Pitavastatin Calcium], the remaining activity at 1.25 µM in experiment [1] (Well no.=8334) was determined as 97.4%. In addition, in experiment [2] (Well no.=8334), the remaining activity at 3.75 µM amounted to 95.7%.

For `Clc1ccc(CCCOCCCN2CCCCC2)cc1` [Pitolisant (hydrochloride)], the remaining activity at 1.25 µM in experiment [1] (Well no.=6225) was 100%. Besides, in experiment [2] (Well no.=6225), the remaining activity at 3.75 µM came to 101%.

With `CC(C)(C)C(=O)OCOC(=O)[C@@H]1N2C(=O)[C@@H](/N=C/N3CCCCCC3)[C@H]2SC1(C)C` [Pivmecillinam], in experiment [1] (Well no.=5414), the remaining activity at 1.25 µM worked out at 93.3%. Besides, the remaining activity at 3.75 µM in experiment [2] (Well no.=5414) came to 98.6%.

Regarding `CN1CCC(=C2c3ccccc3CCc3sccc32)CC1` [Pizotifen], the remaining activity at 1.25 µM in experiment [1] (Well no.=7531) stood at 103%. The remaining activity at 3.75 µM in experiment [2] (Well no.=7531) was determined as 91.1%.

Consider `c1cc(CN2CCCNCCNCCCNCC2)ccc1CN1CCCNCCNCCCNCC1` [Plerixafor (octahydrochloride)], for which the remaining activity at 1.25 µM is 95.7% in experiment [1] (Well no.=8020), 104% in experiment [1] (Well no.=8097) and 100% in experiment [1] (Well no.=8749). The remaining activity at 3.75 µM was 94.1% in experiment [2] (Well no.=8020), 101% in experiment [2] (Well no.=8097) and 100% in experiment [2] (Well no.=8749).

As to `c1cc(CN2CCCNCCNCCCNCC2)ccc1CN1CCCNCCNCCCNCC1` [Plerixafor], the remaining activity at 1.25 µM in experiment [1] (Well no.=6893) was determined as 101%; in experiment [1] (Well no.=8356) it was 91.6%; in experiment [1] (Well no.=8751), 98.3%. Besides, the remaining activity at 3.75 µM in experiment [2] (Well no.=8356) stood at 92.1%; in experiment [2] (Well no.=8751) it was 99.2%.

With `CO[C@H](C(=O)[C@@H](O)[C@@H](C)O)[C@@H]1Cc2cc3cc(O[C@H]4C[C@@H](O[C@@H]5C[C@@H](O)[C@H](O)[C@@H](C)O5)[C@H](O)[C@@H](C)O4)c(C)c(O)c3c(O)c2C(=O)[C@H]1O[C@H]1C[C@@H](O[C@@H]2C[C@@H](O)[C@@H](O[C@@H]3C[C@](C)(O)[C@H](O)[C@@H](C)O3)[C@@H](C)O2)[C@H](O)[C@@H](C)O1` [Plicamycin], the remaining activity at 1.25 µM in experiment [1] (Well no.=1666) was determined as 107%. Besides, the remaining activity at 3.75 µM in experiment [2] (Well no.=1666) turned out to be 106%.

As to `CC(C)(C)c1[nH]cnc1/C=c1\[nH]c(=O)/c(=C/c2ccccc2)[nH]c1=O` [Plinabulin (NPI-2358)], the remaining activity at 1.25 µM in experiment [1] (Well no.=4834) came out at 99%. In addition, in experiment [2] (Well no.=4834), the remaining activity at 3.75 µM came to 102%.

On to `CC1=CC(=O)c2c(O)cccc2C1=O` [Plumbagin], for which the remaining activity at 1.25 µM in experiment [1] (Well no.=3351) came out at 85.5%. In addition, the remaining activity at 3.75 µM in experiment [2] (Well no.=3351) is 79.6%.

Consider `C[C@]1(C(=O)O)CCC[C@]2(C)c3cc(O)ccc3CC[C@@H]12` [Podocarpic acid], for which the remaining activity at 1.25 µM in experiment [1] (Well no.=3296) amounted to 94%. In addition, in experiment [2] (Well no.=3296), the remaining activity at 3.75 µM is 96.2%.

As for `COc1cc([C@@H]2c3cc4c(cc3[C@H](O)[C@H]3COC(=O)[C@H]23)OCO4)cc(OC)c1OC` [Podophyllotoxin], the remaining activity at 1.25 µM came out at 91.2% in experiment [1] (Well no.=1002) and 99.5% in experiment [1] (Well no.=3705). The results for the remaining activity at 3.75 µM in experiment [2] (Well no.=1002) and in experiment [2] (Well no.=3705) were 92.3% and 105%, respectively.

`OC[C@H]1O[C@@H](Oc2cc(O)cc(/C=C/c3ccc(O)cc3)c2)[C@H](O)[C@@H](O)[C@@H]1O` [Polydatin]: the remaining activity at 1.25 µM in experiment [1] (Well no.=6304) stood at 100%; in experiment [1] (Well no.=8196), 102%. Moreover, the values for the remaining activity at 3.75 µM in experiment [2] (Well no.=6304) and in experiment [2] (Well no.=8196) were 98.5% and 97.4%, respectively.

`Nc1cccc2c1C(=O)N(C1CCC(=O)NC1=O)C2=O` (centres unmarked) [Pomalidomide]: the remaining activity at 1.25 µM in experiment [1] (Well no.=4963) came to 100%. Also, in experiment [2] (Well no.=4963), the remaining activity at 3.75 µM was found to be 96.3%.

Regarding `Cc1ccc(C(=O)Nc2ccc(CN3CCN(C)CC3)c(C(F)(F)F)c2)cc1C#Cc1cnc2cccnn12` [Ponatinib (AP24534)], the remaining activity at 1.25 µM in experiment [1] (Well no.=4913) is 98.1%. Besides, the remaining activity at 3.75 µM in experiment [2] (Well no.=4913) amounted to 95.4%.
